For data set [1], the system named is MDA-MB-231/Luc-induced osteolytic metastasis. Briefly: Real-time NIR fluorescence and PA imaging of osteolytic metastasis. Format: in vivo, BALB/c nude mice. The settings on record: i.v. 50 μM, 200 μL; imaged 0-24 h; n = 3. How it is done:
page 5: PS. RAW 264.7 cells and BMMs were maintained in an atmosphere of 5% CO2 and 95% humidified air at 37 °C. The medium was changed every day. Cell cytotoxicity assay. MDA-MB-231/Luc and RAW 264.7 cells were seeded in 96-well plates (5×10^3 cells per well) for 24 h and then incubated with CTSK-APPA or CTSK-APP (5, 10, 20, 50 μM) or saline for 24 h. The medium was removed and cells were incubated with CCK-8 (0.5 mg/mL) for another 1 h. The absorbance of the mixture at 450 nm was measured by using a microplate reader. Cell viability was expressed by the ratio of the absorbance of the cells incubated with the probes to that of the cells incubated with culture medium only. In vitro osteoclast differentiation. Bone marrow-derived macrophages were isolated from the femurs and tibias of 4-week-old C57BL/6J mice and cultured in a complete medium containing M-CSF (30 ng/mL) for 4 days. […] Fluorescence images were captured by using the IVIS Spectrum imaging system with excitation at 660 ± 10 nm and emission at 710 ± 10 nm. […] The bone marrow toxicity of CTSK-APPA and CTSK-APP was assessed by blood analyses in mice. […] The red blood count (RBC) and white blood count (WBC) were further measured. […] The supernatants containing excreted probes were quantified by using a UV-vis absorption spectrometer. […]

Data set [2] is described as follows: Bone marrow toxicity analysis (blood RBC and WBC counts). Format: in vivo, BALB/c nude mice. The settings on record: i.v. 50 μM, 200 μL; blood 24 h post-injection; n = 3. The procedure: Bone marrow toxicity analysis. The bone marrow toxicity of CTSK-APPA and CTSK-APP was assessed by blood analyses in mice. SPF grade 4-week-old BALB/c nude mice were intravenously injected with CTSK-APPA(50 μM, 200 μL) or saline (200 μL). The blood samples were collected in anticoagulant tubes at 24 h post-injection and stored at 4°C. The red blood count (RBC) and white blood count (WBC) were further measured.
Renal clearance efficiency studies. SPF grade 4-week-old BALB/c nude mice were intravenously injected with CTSK-APPA or CTSK-APP (50 μM, 200 μL) and placed in metabolic cages. The urine was collected at 3, 6, and 24 h post-injection, and then centrifuged at 5000 r.p.m. for 5 min. The supernatants containing excreted probes were quantified by using a UV-vis absorption spectrometer. […]
In vivo Bioluminescence, DR, CT, and MR imaging. […] Then BL imaging was recorded on an IVIS Spectrum imaging system at 10 min post-injection under anesthesia using isoflurane. All data were analyzed with the Living Image software. DR, CT, and MR imaging were recorded on an IVIS Spectrum imaging system, a single-photon emission computed tomography imaging system, and a preclinical magnetic resonance solution system, respectively.
Real-time tumor imaging. […] Fluorescence and PA images were acquired at 0, 1, 2, 4, 8, 12, and 24 h post-injection. […]
Histology. […] Images were captured by using a fluorescence microscope. […]

In the case of Cbz‐Leu‐Arg‐OH [CTSK-APPA], the “time of maximum NIR fluorescence and PA signal post-injection” value in data set [1] came to 4 h. Further, the “red blood cell (RBC) and white blood cell (WBC) counts vs saline group” value in data set [2] is “No apparent differences”.

The record behind these values is PMC10460880, “Cathepsin K‐Activated Probe for Fluoro‐Photoacoustic Imaging of Early Osteolytic Metastasis” (Advanced Science, 2023).
